Our source for the TGI and GI50 values is PubChem BioAssay (NCI).

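All cell lines were grown in 96-well plates and treated with compound for 48 hours. GI50: concentration for 50% inhibition of growth. The concentration for full growth arrest is given as TGI.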 Bounds are passed on as bounds.

Among the test systems are LOX IMVI melanoma; SNB-19 CNS; UACC-257 melanoma; ACHN renal; DU-145 prostate; SF-295 CNS; M14 melanoma; HCT-15 colon; MOLT-4 leukemia; NCI-H23 lung.
Common to all, as to experiment: NCI anticancer screen, dose series, 48 h

Regarding `COc1cc2[nH]c(-c3ccccc3)cc(=O)c2c(OC)c1OC`, the TGI with LOX IMVI melanoma, in the assay on SNB-19 CNS, with UACC-257 melanoma, with ACHN renal, in the assay on DU-145 prostate and in the assay on SF-295 CNS was more than 100 µM each time. Further, the TGI in the assay with M14 melanoma, in the assay with HCT-15 colon, in the assay with MOLT-4 leukemia and with NCI-H23 lung was more than 100 µM in each case.

Consider `CCOC(=O)c1ccc(Nc2nc3ccc(C(F)(F)F)cc3nc2C(=O)OCC)cc1`, for which the TGI with LOX IMVI melanoma, in the assay with SNB-19 CNS, in the assay on UACC-257 melanoma, in the assay on ACHN renal, in the assay on DU-145 prostate and in the assay on SF-295 CNS was more than 100 µM in each case. Further, the TGI in the assay with M14 melanoma, in the assay with HCT-15 colon, in the assay on MOLT-4 leukemia and in the assay with NCI-H23 lung was more than 100 µM throughout.

`Cc1cc(C)nc(NS(=O)(=O)c2ccc(NC(=O)c3cccc4c(NNc5ccc(S(=O)(=O)N=C(N)N)cc5)c5ccccc5nc34)cc2)n1`: the TGI with LOX IMVI melanoma, in the assay on SNB-19 CNS, in the assay with UACC-257 melanoma, in the assay with ACHN renal, in the assay on DU-145 prostate and in the assay on SF-295 CNS was more than 50 µM in each case. Further, the TGI with M14 melanoma, with HCT-15 colon, in the assay with MOLT-4 leukemia and in the assay on NCI-H23 lung was more than 50 µM in each case.

For the molecule `CCN1C(=O)C(=C/C=C/c2ccc(N(CC)CC)cc2)C(=O)N(CC)C1=S`, the TGI in the assay on LOX IMVI melanoma, in the assay with SNB-19 CNS, in the assay with UACC-257 melanoma, in the assay on ACHN renal, with DU-145 prostate and with SF-295 CNS was more than 100 µM each time. Also, the TGI in the assay with M14 melanoma, in the assay with HCT-15 colon, in the assay on MOLT-4 leukemia and in the assay with NCI-H23 lung was more than 100 µM each time.

On to `CC(C)N1CN(c2ccccc2)C2(CCN(CCCC(=O)c3ccc(F)cc3)CC2)C1=O`, for which the TGI in the assay on LOX IMVI melanoma was 20.2 µM; with SNB-19 CNS, more than 56 µM; in the assay on UACC-257 melanoma it was 8.94 µM; in the assay on ACHN renal, 42.5 µM; in the assay with DU-145 prostate it was 24.2 µM; in the assay with SF-295 CNS it was 26.9 µM. Moreover, the TGI with M14 melanoma is 31.1 µM; in the assay on HCT-15 colon it was 40.5 µM; in the assay on MOLT-4 leukemia, 47.3 µM; with NCI-H23 lung it was 28.1 µM.

As for `COc1ccc(C2c3cc4c(cc3OC(NCCO)C2C)OCO4)cc1` (stereo not given), the TGI is 68.7 µM with LOX IMVI melanoma; more than 100 µM in the assay on SNB-19 CNS; 72.4 µM in the assay with UACC-257 melanoma; 93.1 µM in the assay with ACHN renal; more than 100 µM with DU-145 prostate; 89.1 µM with SF-295 CNS. In addition, the TGI in the assay with M14 melanoma was 84.6 µM; in the assay on HCT-15 colon it was 54.4 µM; with MOLT-4 leukemia, 50 µM; in the assay on NCI-H23 lung it was more than 100 µM.

For `Clc1ccc(/C(=C\c2ccccc2)Cn2ccnc2)cc1`, the TGI in the assay on LOX IMVI melanoma was found to be 22.9 µM; in the assay with SNB-19 CNS, 49.4 µM; in the assay with UACC-257 melanoma, 47.8 µM; in the assay with ACHN renal, 67.6 µM; with DU-145 prostate, 58.3 µM; with SF-295 CNS it was 49.4 µM. Moreover, the TGI is 39.4 µM in the assay with M14 melanoma, 39.1 µM in the assay with HCT-15 colon, more than 100 µM in the assay with MOLT-4 leukemia and more than 100 µM in the assay on NCI-H23 lung.

In the case of `C[C@]12CC[C@@H]3c4ccc(O)cc4CC[C@H]3[C@@H]1C/C(=C\c1ccc(C#N)cc1)C2=O`, the TGI in the assay on LOX IMVI melanoma, in the assay on SNB-19 CNS, with UACC-257 melanoma, in the assay with ACHN renal, in the assay with DU-145 prostate and in the assay on SF-295 CNS was more than 100 µM each time. Also, the TGI with M14 melanoma, in the assay with HCT-15 colon, in the assay on MOLT-4 leukemia and with NCI-H23 lung was more than 100 µM throughout.

As for `O=C(OCC1OC(n2nc(Cn3nnc(-c4cccnc4)n3)n(-c3cccc4ccccc34)c2=S)C(OC(=O)c2ccccc2)C1OC(=O)c1ccccc1)c1ccccc1` (stereo not given), the TGI in the assay on LOX IMVI melanoma, in the assay with SNB-19 CNS, in the assay with UACC-257 melanoma, in the assay on ACHN renal, in the assay with DU-145 prostate and in the assay on SF-295 CNS was more than 100 µM in each case. For the same molecule, the TGI in the assay on M14 melanoma, with HCT-15 colon, with MOLT-4 leukemia and in the assay on NCI-H23 lung was more than 100 µM throughout.

Turning to `COc1ccc2c(c1)c(=O)c1c(NCCNCCO)ccc3c(=O)n(CCN(C)C)c(=O)n2c31`, the TGI was 1.11 µM in the assay with LOX IMVI melanoma; 0.997 µM in the assay on SNB-19 CNS; 1.06 µM in the assay with UACC-257 melanoma; 1.49 µM in the assay on ACHN renal; 0.31 µM in the assay with DU-145 prostate; 1.84 µM with SF-295 CNS. Besides, the TGI was 1.86 µM in the assay with M14 melanoma, 6.39 µM in the assay with HCT-15 colon, more than 100 µM in the assay on MOLT-4 leukemia and 0.271 µM in the assay on NCI-H23 lung.

On to `COc1ccc(-n2nc(C)c3c(Nc4ccc(NC(=O)Nc5ccc(Cl)c(C(F)(F)F)c5)cc4)ncnc32)cc1`, for which the GI50 with LOX IMVI melanoma is 1.34 µM; with SNB-19 CNS, 2.49 µM; with UACC-257 melanoma, 1.88 µM; in the assay on ACHN renal, 1.64 µM; in the assay on DU-145 prostate, 3.33 µM; with SF-295 CNS it was 1.58 µM. Besides, the GI50 was 1.68 µM in the assay with M14 melanoma, 1.42 µM with HCT-15 colon, 1.82 µM in the assay with MOLT-4 leukemia and 1.69 µM in the assay on NCI-H23 lung. Further, the TGI with LOX IMVI melanoma is 2.67 µM; with SNB-19 CNS, 7.88 µM; in the assay with UACC-257 melanoma, 4.66 µM; in the assay on ACHN renal it was 6.86 µM; in the assay with DU-145 prostate, more than 100 µM; with SF-295 CNS it was 3.49 µM. Moreover, the TGI worked out at 4.32 µM with M14 melanoma, 3.09 µM with HCT-15 colon, 7.49 µM in the assay on MOLT-4 leukemia and 3.95 µM with NCI-H23 lung.

As to `CC(C)C1=C(O)C2=C(C(=O)C1=O)C1(C)CCCC(C)(C)C1C(O)C2OC=O` (stereo not given), the TGI was 11.6 µM with LOX IMVI melanoma; 31.7 µM in the assay on SNB-19 CNS; 21.6 µM with UACC-257 melanoma; 13.2 µM in the assay with ACHN renal; 19.1 µM in the assay with DU-145 prostate; 29.3 µM in the assay on SF-295 CNS. For the same molecule, the TGI with M14 melanoma is 29.1 µM; with HCT-15 colon, 16.4 µM; in the assay with MOLT-4 leukemia, 6.91 µM; with NCI-H23 lung, 20.5 µM.
